Laboratory results from US20250262201A1, “COMPOUNDS AND METHODS USEFUL FOR STABILIZING PHENYLALANINE HYDROXYLASE MUTATIONS” (Agios Pharmaceuticals, Inc., priority 2022, published 2025).
Where two headings read alike, the source gives them in different places.

Biological target: T1, human PAH with the R408W mutation (Homo sapiens, UniProt P00439, R408W)
T1 construct: expressed in transfected cells
T1 sequence (P00439 1-452 R408W): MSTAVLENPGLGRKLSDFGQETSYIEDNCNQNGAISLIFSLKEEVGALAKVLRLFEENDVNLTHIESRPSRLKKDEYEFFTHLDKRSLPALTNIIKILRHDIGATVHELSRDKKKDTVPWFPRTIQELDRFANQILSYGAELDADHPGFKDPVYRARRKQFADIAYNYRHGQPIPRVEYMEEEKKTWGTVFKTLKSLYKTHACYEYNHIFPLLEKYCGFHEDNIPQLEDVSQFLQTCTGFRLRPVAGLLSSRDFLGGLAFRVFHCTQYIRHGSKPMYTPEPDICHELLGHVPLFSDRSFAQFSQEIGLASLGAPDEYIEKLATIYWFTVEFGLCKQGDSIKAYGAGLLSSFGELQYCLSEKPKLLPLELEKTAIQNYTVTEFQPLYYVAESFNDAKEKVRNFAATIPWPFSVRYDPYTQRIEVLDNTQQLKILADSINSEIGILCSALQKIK
Assay: Cell Based Phenylalanine Flux Assay
Set-up: scale not given here
Details: 13C-Tyrosine by LC-MS, average where tested multiple times

[1] = A375 cells expressing human R408W PAH, 24 hrs compound incubation, read-out: AC50
[2] = A375 R408W cells, 24 hrs with compound, then 20 μM sepiapterin and 800 μM 13C9,15N-Phenylalanine for 4 hours
[3] = A375 R408W cells, 24 hrs with compound, then 20 μM sepiapterin and 800 μM 13C9,15N-Phenylalanine for 4 hours, read-out: AC50

SMILES | AC50 [1] [nM] | AC50 [2] | further results
CC(C)(C#N)c1nc(C(F)F)c(C(=O)N2CCc3[nH]cnc3C2c2ccc3ccccc3n2)o1 (stereo in doubt) [Example 127, (S)-2-(4-(difluoromethyl)-5-(4-(quinolin-2-yl)-4,5,6,7-tetrahydro-1H-imidazo[4,5-c]pyridine-5-carbonyl)oxazol-2-yl)-2-methylpropanenitrile] | 1000 to 5000 |  | 
CC(C)(C#N)c1nc(C(F)F)c(C(=O)N2CCc3[nH]cnc3C2c2ccc3ccccc3n2)o1 (stereo in doubt) [Example 128, (R)-2-(4-(difluoromethyl)-5-(4-(quinolin-2-yl)-4,5,6,7-tetrahydro-1H-imidazo[4,5-c]pyridine-5-carbonyl)oxazol-2-yl)-2-methylpropanenitrile] | < 500 |  | 
O=C(c1oc(C2(O)CC2)nc1C(F)F)N1CCc2[nH]cnc2C1c1ccc2ccccc2n1 (stereo in doubt) [Example 129, (S)-(4-(difluoromethyl)-2-(1-hydroxycyclopropyl)oxazol-5-yl)(4-(quinolin-2-yl)-6,7-dihydro-1H-imidazo[4,5-c]pyridin-5(4H)-yl)methanone] | 1000 to 5000 |  | 
O=C(c1oc(C2(O)CC2)nc1C(F)F)N1CCc2[nH]cnc2C1c1ccc2ccccc2n1 (stereo in doubt) [Example 130, (R)-(4-(difluoromethyl)-2-(1-hydroxycyclopropyl)oxazol-5-yl)(4-(quinolin-2-yl)-6,7-dihydro-1H-imidazo[4,5-c]pyridin-5(4H)-yl)methanone] | < 500 |  | 
CC(C)(C)c1ncc(C(=O)N2CCc3[nH]cnc3C2c2ccc3ccccc3n2)o1 (stereo in doubt) [Example 258, (R)-(2-(tert-butyl)oxazol-5-yl)(4-(quinolin-2-yl)-6,7-dihydro-1H-imidazo[4,5-c]pyridin-5(4H)-yl)methanone] | < 500 |  | 
O=C(c1cn[nH]c1C(F)F)N1CCc2[nH]cnc2C1c1ccc2ccccc2n1 (stereo in doubt) [Example 259, (R)-(5-(difluoromethyl)-1H-pyrazol-4-yl)(4-(quinolin-2-yl)-6,7-dihydro-1H-imidazo[4,5-c]pyridin-5(4H)-yl)methanone] | < 500 |  | 
O=C(c1ccnn1-c1ccccn1)N1CCc2[nH]cnc2C1c1ccc2ccccc2n1 (stereo in doubt) [Example 261, (R)-(1-(pyridin-2-yl)-1H-pyrazol-5-yl)(4-(quinolin-2-yl)-6,7-dihydro-1H-imidazo[4,5-c]pyridin-5(4H)-yl)methanone] | < 500 |  | 
Cn1nc(Cl)cc1C(=O)N1CCc2[nH]cnc2C1c1ccc2ccccc2n1 (stereo in doubt) [Example 263, (R)-(3-chloro-1-methyl-1H-pyrazol-5-yl)(4-(quinolin-2-yl)-6,7-dihydro-1H-imidazo[4,5-c]pyridin-5(4H)-yl)methanone] | < 500 |  | 
Cn1nc(Cl)nc1C(=O)N1CCc2[nH]cnc2C1c1ccc2ccccc2n1 (stereo in doubt) [Example 265, (R)-(3-chloro-1-methyl-1H-1,2,4-triazol-5-yl)(4-(quinolin-2-yl)-6,7-dihydro-1H-imidazo[4,5-c]pyridin-5(4H)-yl)methanone] | 500 to 1000 |  | 
Nc1cc(C(=O)N2CCc3[nH]cnc3C2c2ccc3ccccc3n2)n(C(F)F)n1 (stereo in doubt) [Example 267, (R)-(3-amino-1-(difluoromethyl)-1H-pyrazol-5-yl)(4-(quinolin-2-yl)-6,7-dihydro-1H-imidazo[4,5-c]pyridin-5(4H)-yl)methanone] | 500 to 1000 |  | 
CCn1cnnc1C(=O)N1CCc2[nH]cnc2C1c1ccc2ccccc2n1 (stereo in doubt) [Example 270, (R)-(4-ethyl-4H-1,2,4-triazol-3-yl)(4-(quinolin-2-yl)-6,7-dihydro-1H-imidazo[4,5-c]pyridin-5(4H)-yl)methanone] | 500 to 1000 |  | 
O=C(CCc1nccs1)N1CCc2[nH]cnc2C1c1ccc2ccccc2n1 (stereo in doubt) [Example 271, (R)-1-(4-(quinolin-2-yl)-6,7-dihydro-1H-imidazo[4,5-c]pyridin-5(4H)-yl)-3-(thiazol-2-yl)propan-1-one] | 500 to 1000 |  | 
O=C(CCc1nccs1)N1CCc2[nH]cnc2C1c1ccc2ccccc2n1 (stereo in doubt) [Example 272, (S)-1-(4-(quinolin-2-yl)-6,7-dihydro-1H-imidazo[4,5-c]pyridin-5(4H)-yl)-3-(thiazol-2-yl)propan-1-one] | > 5000 |  | 
O=C(c1cnc(-c2ccc(F)cn2)s1)N1CCc2[nH]cnc2C1c1cc2ccccc2cn1 (stereo in doubt) [Example 312, (R)-(2-(5-fluoropyridin-2-yl)thiazol-5-y1)(4-(isoquinolin-3-yl)-6,7-dihydro-1H-imidazo[4,5-c]pyridin-5(4H)-yl)methanone] | < 500 |  | 
O=C(c1nnc(C2CC2)o1)N1CCc2[nH]cnc2C1c1cc2ccccc2cn1 (stereo in doubt) [Example 327, (S)-(5-cyclopropyl-1,3,4-oxadiazol-2-yl)(4-(isoquinolin-3-y1)-6,7-dihydro-1H-imidazo[4,5-c]pyridin-5(4H)-yl)methanone] | > 5000 |  | 
CC1CN(C(=O)c2oc(C(C)(C)O)nc2C(F)(F)F)C(c2cc3ccccc3cn2)c2nc[nH]c21 [(4R,7R) diastereomer of (2-(2-hydroxypropan-2-yl)-4-(trifluo] |  | E, E, | 
CC1CN(C(=O)c2oc(C(C)(C)O)nc2C(F)(F)F)C(c2cc3ccccc3cn2)c2nc[nH]c21 [(4R, 7S) diastereomer of (2-(2-hydroxypropan-2-yl)-4-(triflu] |  | E, E, | 
CC1CN(C(=O)c2nnc(C(C)(C)O)o2)C(c2cc3ccccc3cn2)c2nc[nH]c21 [(4S, 7R) diastereomer of 2-{5-[4-(isoquinolin-3-yl)-7-methyl] |  | E, E | 

SMILES | AC50 [1] [nM] | AC50 [2] | further results
Cc1nnc(C(=O)N2CC(C)c3[nH]cnc3C2c2cc3ccccc3cn2)o1 [(4S, 7R) diastereomer of 3-[7-methyl-5-(5-methyl-1,3,4-oxadi] |  | E, E | 
CC1CN(C(=O)c2ocnc2C(F)(F)F)C(c2cc3ccccc3cn2)c2nc[nH]c21 [(4S, 7R) diastereomer of 3-[7-methyl-5-[4-(trifluoromethyl)-] |  | E, E | 
CC1CN(C(=O)c2nnc(N3CCN(C)CC3)o2)C(c2cc3ccccc3cn2)c2nc[nH]c21 [(4S, 7R) diastereomer of 3-[7-methyl-5-[5-(4-methylpiperazin] |  | E, E | 
COCCNc1nnc(C(=O)N2CC(C)c3[nH]cnc3C2c2cc3ccccc3cn2)o1 [(4S, 7R) diastereomer of 5-[4-(isoquinolin-3-yl)-7-methyl-1H] |  | E, E | 
CC1CN(C(=O)c2oc(C(C)(C)O)nc2C(F)(F)F)C(c2cc3ccccc3cn2)c2nc[nH]c21 [(4S, 7R) diastereomer of (2-(2-hydroxypropan-2-yl)-4-(triflu] |  | E, E | 
CC1CN(C(=O)c2oc(-c3ccccn3)nc2C(F)(F)F)C(c2cc3ccccc3cn2)c2nc[nH]c21 [(4S, 7R) diastereomer of (4-(isoquinolin-3-yl)-7-methyl-6,7-] |  | E, E | 
CC1CN(C(=O)c2nnc(C(C)(C)O)o2)C(c2cc3ccccc3cn2)c2nc[nH]c21 [(4S, 7S) diastereomer of 2-{5-[4-(isoquinolin-3-yl)-7-methyl] |  | E, E | 
CC1CN(C(=O)c2nnc(N3CC(F)C3)o2)C(c2cc3ccccc3cn2)c2nc[nH]c21 [(4S, 7S) diastereomer of 3-[5-[5-(3-fluoroazetidin-1-yl)-1,3] |  |  | AC50 [3]: > 5000 nM
COCc1ccc2c(C(=O)N3CC(C)c4[nH]cnc4C3c3cc4ccccc4cn3)cnn2c1 [(4S, 7S) diastereomer of 3-[5-[6-(methoxymethyl)pyrazolo[1,5] |  |  | AC50 [3]: 1000 to 5000 nM
Cc1ncoc1C(=O)N1CC(C)c2[nH]cnc2C1c1cc2ccccc2cn1 [(4S, 7S) diastereomer of 3-[7-methyl-5-(4-methyl-1,3-oxazole] |  | E, E | 
Cc1nnc(C(=O)N2CC(C)c3[nH]cnc3C2c2cc3ccccc3cn2)o1 [(4S, 7S) diastereomer of 3-[7-methyl-5-(5-methyl-1,3,4-oxadi] |  | E, E | 
CC1CN(C(=O)c2nnc(N3CCN(C)CC3)o2)C(c2cc3ccccc3cn2)c2nc[nH]c21 [(4S, 7S) diastereomer of 3-[7-methyl-5-[5-(4-methylpiperazin] |  | E, E | 
COCCNc1nnc(C(=O)N2CC(C)c3[nH]cnc3C2c2cc3ccccc3cn2)o1 [(4S, 7S) diastereomer of 5-[4-(isoquinolin-3-yl)-7-methyl-1H] |  | E, E | 
CC1CN(C(=O)c2oc(C(C)(C)O)nc2C(F)(F)F)C(c2cc3ccccc3cn2)c2nc[nH]c21 [(4S, 7S) diastereomer of (2-(2-hydroxypropan-2-yl)-4-(triflu] |  | E, E | 
CC1CN(C(=O)c2oc(-c3ccccn3)nc2C(F)(F)F)C(c2cc3ccccc3cn2)c2nc[nH]c21 [(4S, 7S) diastereomer of (4-(isoquinolin-3-yl)-7-methyl-6,7-] |  | E, E | 
O=C(c1nnc(-c2ccc(F)cc2)o1)N1CCc2[nH]cnc2[C@@H]1c1ccc2ccccc2n1 [Example 12] | > 5000 |  | 
Cc1nc(C(C)(C)O)oc1C(=O)N1CCc2[nH]cnc2[C@H]1c1ccc2ccccc2n1 [Example 13] | 1000 to 5000 |  | 
O=C(c1nnc(-c2c(F)cccc2F)o1)N1CCc2[nH]cnc2[C@@H]1c1ccc2ccccc2n1 [Example 24] | > 5000 |  | 
